Measured values published in patent US20050064027A1, “Bioadhesive drug delivery system with enhanced gastric retention” (Spherics, Inc., priority 2001, published 2005).

Assay: Release kinetics from multi-drug macrospheres
Assay type: physicochemical
Conditions: salicylate in outer Eudragit RL 100 coating, acyclovir in core
Text: Fluidized bed spraying of 5% RL 100-coated 40% Acyclovir (ACV) loaded cores with 25% sodium salicylate w/w in a 10% RL 100-coating was then used to produce multi-drug macrospheres.
The starting material was the product of Example 2 (5% w/w RL 100 coated 40% ACV cores and overcoat with 10% RL 100 coating containing 25% w/w sodium salicylate). Overcoating with a 10% w/w coating of RL100 containing 25% w/w salicylate was used to produce a biphasic drug system. Sodium salicylate should be quickly delivered followed by acyclovir release. A 176.0 g lot of beads, 40% w/w Acyclovir (1.4-2.36 mm) was used as the cores for the coatings.
The release kinetics of the two drugs from the macrospheres of Example 6 were then determined. FIG. 6 is a graph of release of acyclovir (ACV) and salicylate as a function of percent total acyclovir loading, over time (in hours), from macrospheres wherein the salicylate is encapsulated in an outer Eudragit® RL 100 coating and the acyclovir is encapsulated in the core. The outer drug loading is used to achieve rapid release (three hours) as compared to more long term release of the core drug (24 hours).

SMILES	time of release of drug from multi-drug macrospheres	time of release of drug from multi-drug macrospheres (listed as salicylate)
Nc1nc2c(ncn2COCCO)c(=O)[nH]1 [acyclovir]	24 h	
O=C([O-])c1ccccc1O.[Na+] [sodium salicylate]	≤ 3 h	three
